# Laboratory results reported in US6218102A, “Synthetic peptides and mixtures thereof for detecting HIV antibodies” (priority 1988, dated 2001).
# Ends that are not written are not given here. Peptide text beside a SMILES is read from it.
# Columns and labels:
# [1] = system: Antibodies to HIV-1; test: ELISA with peptide or peptide mixture as antigen, identifying HIV-1 positive sera; format: binding, human; conditions: Table 3
# Method: According to this test a peptide or a peptide mixture of the present invention is adsorbed onto the wells of a microtiter plate. The wells are then treated with sera to be tested. After washing, anti-human IgG labeled with peroxidase is added to the wells. The determination of the peroxidase is performed with a corresponding substrate, e.g. with o-phenylene diamine. Also in this procedure the peroxidase can be exchanged by another label, e.g. by a radioactive or fluorescence label.
# (§1) Each well of the microtiter plate is saturated with 100 μl of a solution containing a peptide or mixture of peptides (5 μg/ml) and left overnight. The wells are emptied and washed twice with a washing buffer (Tris, 0.043M; NaCl, 0.5M; thimerosal, 0.01% w/v; Tween 20, 0.05% v/v; pH7.4). The wells are then saturated with 0.35 ml of washing buffer for 1 hr. at 37° C. and washed once with the same buffer. Serum samples to be analyzed are diluted with specimen buffer (washing buffer plus casein, 0.05% w/v). The wells are rinsed with washing buffer prior to the addition of the diluted serum sample (0.1 ml). These are left to incubate for 1 hr. at room temperature. The wells are then emptied, washed twice rapidly and then once for two minutes with washing buffer. […] The wells are then emptied and washed twice rapidly with washing buffer and then five times in which the buffer was in contact with the well 2 minutes per washing. The substrate solution (3,3', 5,5'-tetramethylbenzidine, 8 mg per ml of DMSO) is diluted with 100 volumes 0.1M citrate-acetate buffer, pH 5.6 containing 0.1% v/v of 30% H2 O2 and added to each well (0.1 ml per well). After 10 minutes the contents of each well is treated with 0.1 ml 2N H2 SO4 and the optical density read at 450 nm. All determinations are done in duplicate.
# [2] = system: Antibodies to HIV-1; test: ELISA, relative performance of cyclic and non-cyclic HIV-1 peptides at serum dilutions (optical density); format: binding, human
# Method: Table 4 is provided to illustrate the sensitivity of cyclic versus non cyclic peptides in the ELISA test by comparing the results of some sera at various dilutions.
# as §1
# [3] = single peptide, known HIV-1 positive sera
# [4] = single p 24 peptide, Free, HIV-1 positive sera
# [5] = single p 24 peptide, coupled, HIV-1 positive sera
# [6] = serum specimen 87V103, dilution 1/50
# [7] = serum specimen 1428, dilution 1/50
# [8] = serum specimen M-5, dilution 1/50
# [9] = serum specimen M-5, dilution 1/100
# [10] = serum specimen M-5, dilution 1/200
# [11] = serum specimen M-5, dilution 1/800
# [12] = serum specimen M-7, dilution 1/50
# [13] = serum specimen M-7, dilution 1/100
# [14] = serum specimen M-7, dilution 1/200
# [15] = serum specimen M-7, dilution 1/400
# [16] = serum specimen M-7, dilution 1/800
# [17] = serum specimen M-8, dilution 1/50
# [18] = serum specimen M-8, dilution 1/100
# [19] = serum specimen M-8, dilution 1/200
# [20] = serum specimen M-8, dilution 1/400
# [21] = serum specimen M-8, dilution 1/800
# [22] = serum specimen M-16, dilution 1/50
# [23] = serum specimen M-16, dilution 1/100
# [24] = serum specimen M-16, dilution 1/200
# [25] = serum specimen M-16, dilution 1/400
# [26] = serum specimen M-16, dilution 1/800
compound,measurement,setting,value
GHACVPTDPNPQEVVL [Peptide 14],% Positive Sera Correctly Identified,[1]; [3],50%
"NH2 -VERYLKDQQLLGIWGCSGKLICTTAVPWNAS-COOH (H-VERYLKDQQLLGIWGCSGKLICTTAVPWNAS-OH; cysteine pairing not given here) [Peptide 81, gp 41 590-620]",% Positive Sera Correctly Identified,[1]; [3],100%
"CC[C@H](C)[C@H](NC(=O)[C@H](CCC(N)=O)NC(=O)[C@H](CCC(=O)O)NC(=O)[C@H](CC(C)C)NC(=O)[C@H](CO)NC(=O)[C@H](CCCCN)NC(=O)[C@H](CC(N)=O)NC(=O)[C@H](CO)NC(=O)[C@H](Cc1c[nH]c2ccccc12)NC(=O)[C@H](CO)NC(=O)[C@H](C)NC(=O)[C@H](CC(N)=O)NC(=O)[C@H](Cc1c[nH]c2ccccc12)NC(=O)[C@@H]1CCCN1C(=O)[C@@H](NC(=O)[C@H](C)NC(=O)[C@@H](NC(=O)[C@@H](NC(=O)[C@@H]1CSSC[C@H](NC(=O)CN)C(=O)N[C@@H](CO)C(=O)NCC(=O)N[C@@H](CCCCN)C(=O)N[C@@H](CC(C)C)C(=O)N[C@@H]([C@@H](C)CC)C(=O)N1)[C@@H](C)O)[C@@H](C)O)C(C)C)C(=O)O [Peptide 96] (HELM PEPTIDE1{G.C.S.G.K.L.I.C.T.T.A.V.P.W.N.A.S.W.S.N.K.S.L.E.Q.I}$PEPTIDE1,PEPTIDE1,2:R3-8:R3$$$V2.0)",% Positive Sera Correctly Identified,[1]; [3],100%
"CGRAEQASQEVKN [Peptide 46, NH2 -CGRAEQASQEVKN-COOH]",% Positive Sera Correctly Identified,[1]; [4],0%
same,% Positive Sera Correctly Identified,[1]; [5],93%
"NH2 -GCSGKLICTTAVPWNAS-COOH (H-GCSGKLICTTAVPWNAS-OH; cysteine pairing not given here) [Peptide 77, gp 41 604-620]",ELISA optical density,[2]; [6],0.000 OPTICAL DENSITY UNITS
same,ELISA optical density,[2]; [7],0.926 OPTICAL DENSITY UNITS
same,ELISA optical density,[2]; [8],1.719 OPTICAL DENSITY UNITS
same,ELISA optical density,[2]; [9],1.459 OPTICAL DENSITY UNITS
same,ELISA optical density,[2]; [10],1.248 OPTICAL DENSITY UNITS
same,ELISA optical density,"[2]; serum specimen M-5, dilution 1/400",0.959 OPTICAL DENSITY UNITS
same,ELISA optical density,[2]; [11],0.057 OPTICAL DENSITY UNITS
same,ELISA optical density,[2]; [12],0.142 OPTICAL DENSITY UNITS
same,ELISA optical density,[2]; [13],0.025 OPTICAL DENSITY UNITS
same,ELISA optical density,[2]; [14],0.007 OPTICAL DENSITY UNITS
same,ELISA optical density,[2]; [15],0.001 OPTICAL DENSITY UNITS
same,ELISA optical density,[2]; [16],0.000 OPTICAL DENSITY UNITS
same,ELISA optical density,[2]; [17],0.795 OPTICAL DENSITY UNITS
same,ELISA optical density,[2]; [18],0.507 OPTICAL DENSITY UNITS
same,ELISA optical density,[2]; [19],0.376 OPTICAL DENSITY UNITS
same,ELISA optical density,[2]; [20],0.209 OPTICAL DENSITY UNITS
same,ELISA optical density,[2]; [21],0.062 OPTICAL DENSITY UNITS
same,ELISA optical density,[2]; [22],1.219 OPTICAL DENSITY UNITS
same,ELISA optical density,[2]; [23],0.962 OPTICAL DENSITY UNITS
same,ELISA optical density,[2]; [24],0.613 OPTICAL DENSITY UNITS
same,ELISA optical density,[2]; [25],0.301 OPTICAL DENSITY UNITS
same,ELISA optical density,[2]; [26],0.205 OPTICAL DENSITY UNITS
same,% Positive Sera Correctly Identified,[1]; [3],100%
TKAKRRVVQREKRGAVGIGALFLGFLGAAGSG [Peptide 93],% Positive Sera Correctly Identified,[1]; [3],37%
NH2 -CGLGIWGCSGKLICTTAVPWNASWSNKSLEQI-COOH [Peptide 98],% Positive Sera Correctly Identified,[1]; [3],100%
NH2 -FAFAFGCSGKLICTTAVPWNASWSNKSLEQI-COOH [Peptide 91],% Positive Sera Correctly Identified,[1]; [3],94%
"CGNNPPIPVGE [Peptide 41, NH2 -CGNNPPIPVGE-COOH]",% Positive Sera Correctly Identified,[1]; [4],63%
same,% Positive Sera Correctly Identified,[1]; [5],73%
"CC[C@H](C)[C@@H]1NC(=O)[C@H](CC(C)C)NC(=O)[C@H](CCCCN)NC(=O)CNC(=O)[C@H](CO)NC(=O)[C@@H](NC(=O)CN)CSSC[C@@H](C(=O)N[C@H](C(=O)N[C@H](C(=O)N[C@@H](C)C(=O)N[C@H](C(=O)N2CCC[C@H]2C(=O)N[C@@H](Cc2c[nH]c3ccccc23)C(=O)N[C@@H](CC(N)=O)C(=O)N[C@@H](C)C(=O)N[C@@H](CO)C(=O)O)C(C)C)[C@@H](C)O)[C@@H](C)O)NC1=O [Peptide 80] (HELM PEPTIDE1{G.C.S.G.K.L.I.C.T.T.A.V.P.W.N.A.S}$PEPTIDE1,PEPTIDE1,2:R3-8:R3$$$V2.0)",ELISA optical density,[2]; [6],0.003 OPTICAL DENSITY UNITS
same,ELISA optical density,[2]; [7],1.047 OPTICAL DENSITY UNITS
same,ELISA optical density,[2]; [8],2.104 OPTICAL DENSITY UNITS
same,ELISA optical density,[2]; [9],1.881 OPTICAL DENSITY UNITS
same,ELISA optical density,[2]; [10],1.599 OPTICAL DENSITY UNITS
same,ELISA optical density,[2]; [11],0.767 OPTICAL DENSITY UNITS
same,ELISA optical density,[2]; [12],0.191 OPTICAL DENSITY UNITS
same,ELISA optical density,[2]; [13],0.067 OPTICAL DENSITY UNITS
same,ELISA optical density,[2]; [14],0.019 OPTICAL DENSITY UNITS
same,ELISA optical density,[2]; [15],0.010 OPTICAL DENSITY UNITS
same,ELISA optical density,[2]; [16],0.005 OPTICAL DENSITY UNITS
same,ELISA optical density,[2]; [17],1.026 OPTICAL DENSITY UNITS
same,ELISA optical density,[2]; [18],0.737 OPTICAL DENSITY UNITS
same,ELISA optical density,[2]; [19],0.520 OPTICAL DENSITY UNITS
same,ELISA optical density,[2]; [20],0.340 OPTICAL DENSITY UNITS
same,ELISA optical density,[2]; [21],0.159 OPTICAL DENSITY UNITS
same,ELISA optical density,[2]; [22],1.601 OPTICAL DENSITY UNITS
same,ELISA optical density,[2]; [23],1.300 OPTICAL DENSITY UNITS
same,ELISA optical density,[2]; [24],0.903 OPTICAL DENSITY UNITS
same,ELISA optical density,[2]; [25],0.583 OPTICAL DENSITY UNITS
same,ELISA optical density,[2]; [26],0.329 OPTICAL DENSITY UNITS
same,% Positive Sera Correctly Identified,[1]; [3],100%
NH2 -CGYLKDQQLLGIWGCSGKLICTTAVPWNASWSNKSLEQI-COOH [Peptide 97],% Positive Sera Correctly Identified,[1]; [3],100%
TTAVPWNASWSNKSLEQGC [Peptide 42],% Positive Sera Correctly Identified,[1]; [3],5%
NH2 -SGKLICTTAVPWNASWSNKSLEQGC-COOH [Peptide 56],% Positive Sera Correctly Identified,[1]; [3],100%
NH2 -CGVERYLKQQLLGIWGCSGKLICTTAVPWNASWSNKSLEQI-COOH [Peptide 99],% Positive Sera Correctly Identified,[1]; [3],100%
NH2 -GCSGKLICTTAVPWNASWSWSNKSLEQI-COOH [Peptide 95],% Positive Sera Correctly Identified,[1]; [3],100%
CGKIEPLGVAPTKAKRRVVQREKR [Peptide 71],% Positive Sera Correctly Identified,[1]; [3],83%
"NH2 -IWGCSGKLICTTAVPWNAS-COOH (H-IWGCSGKLICTTAVPWNAS-OH; cysteine pairing not given here) [Peptide 78, gp 41 602-620]",% Positive Sera Correctly Identified,[1]; [3],100%
